According to ChEMBL document CHEMBL3525927, “Measurement of unbound drug exposure in brain: modeling of pH partitioning explains diverging results between the brain slice and brain homogenate methods” (Drug Metab Dispos, 2011):

Experiments:
Brain [1] = experiment: Unbound volume of distribution in Sprague-Dawley rat brain slices at 100 nM after 5 hrs in presence of 10 uM of cyclosporine; assay type: ADME, tissue-based; conditions: 0.1 µM
Brain [2] = conditions: rat, 5 h, 0.1 µM
in vivo = conditions: Sprague-Dawley, rat
in vitro = conditions: Sprague-Dawley, rat, brain homogenate
Brain [3] = experiment: Drug uptake in Sprague-Dawley rat brain slices in presence of 50 nM of monensin; assay type: ADME, tissue-based
Brain [4] = experiment: Drug uptake in Sprague-Dawley rat brain slices in presence of 1 uM of decynium-22; assay type: ADME, tissue-based
Brain [5] = experiment: Drug uptake in Sprague-Dawley rat brain slices at 100 nM after 5 hrs in presence of 10 uM of cyclosporine; assay type: ADME, tissue-based; conditions: 0.1 µM
[6] = Dissociation constant, pKa of the basic compound by capillary electrophoresis-mass spectrometry analysis; assay type: physicochemical

Description for physchem: Dissociation constant, pKa of the acidic compound by capillary electrophoresis-mass spectrometry analysis

| SMILES | Unbound brain volume of distribution (Brain [1]) | Vdu (Brain [2]; in vivo) [mL/g] | Kp uu (in vivo; brain) | pKa (physchem) | fraction unbound at 5 µM (in vitro) | Compound recovery (Brain [3]) | Compound recovery (Brain [4]) | Vdu (Brain [2]) [mL/g] | Kp uu (in vivo; brain and plasma) | Compound recovery (Brain [5]) | pKa [6] |
| --- | --- | --- | --- | --- | --- | --- | --- | --- | --- | --- | --- |
| CC(C)(C)NC(=O)[C@@H]1C[C@@H]2CCCC[C@@H]2CN1C[C@@H](O)[C@H](Cc1ccccc1)NC(=O)[C@H](CC(N)=O)NC(=O)c1ccc2ccccc2n1 | Active | 208 | 0.79 | 6.8 | 0.0038 |  |  |  |  |  |  |
| C[n+]1ccc(-c2ccccc2)cc1 |  |  |  |  | 0.49 | Not Active | Not Active | 157 | 77 |  |  |
| CCNC(=O)C(C(N)=O)c1ccccc1 (stereo not drawn) |  | 0.93 | 0.6 |  | 0.65 |  |  |  |  |  |  |
| C=C[C@H]1C[N+]2(C)CC[C@H]1C[C@@H]2[C@@H](O)c1ccnc2ccc(OC)cc12 | Active |  |  |  | 0.23 | Active | Not Active | 4.6 | 1.06 |  |  |
| Cc1c(O)cccc1C(=O)N[C@@H](CSc1ccccc1)[C@H](O)CN1C[C@H]2CCCC[C@H]2C[C@H]1C(=O)NC(C)(C)C | Active |  |  | 6.3 | 0.00072 |  |  | 860 | 0.62 | Not Active |  |
| Cc1nnc2n1-c1ccc(Cl)cc1C(c1ccccc1)=NC2 [ALPRAZOLAM] |  |  |  |  | 0.16 |  |  | 6.5 |  |  |  |
| C=CCc1ccccc1OCC(O)CNC(C)C (stereo not drawn) [ALPRENOLOL] |  | 50 | 2.83 |  | 0.057 |  |  |  |  |  |  |
| NC12CC3CC(CC(C3)C1)C2 [AMANTADINE] |  | 9.9 | 2.83 |  | 0.29 |  |  |  |  |  |  |
| CN(C)CCC=C1c2ccccc2CCc2ccccc21 [AMITRIPTYLINE] |  | 310 |  | 9.5 | 0.01 |  |  |  | 3.08 |  |  |
| NCC(CC(=O)O)c1ccc(Cl)cc1 (stereo not drawn) [BACLOFEN] |  |  |  | 9.7 | 0.98 |  |  | 1.7 | 1.62 |  | 3.7 |
| CC(NC(C)(C)C)C(=O)c1cccc(Cl)c1 (stereo not drawn) [BUPROPION] |  |  |  | 8.6 |  |  |  | 16 | 2.66 |  |  |
| CN/C(=N/CCSCc1nc[nH]c1C)NC#N [CIMETIDINE] |  | 2.3 | 1.73 | 7 | 0.76 |  |  |  |  |  |  |
| Clc1cccc(Cl)c1N=C1NCCN1 [CLONIDINE] |  | 5.9 | 2.47 | 8.3 | 0.42 |  |  |  |  |  |  |
| COc1ccc2c3c1O[C@H]1[C@@H](O)C=C[C@H]4[C@@H](C2)N(C)CC[C@@]341 [CODEINE] |  | 3.2 | 1.99 | 8.4 | 0.62 |  |  |  |  |  |  |
| CC(C)Nc1cccnc1N1CCN(C(=O)c2cc3cc(NS(C)(=O)=O)ccc3[nH]2)CC1 [DELAVIRDINE] |  | 40 | 0.86 | 4.5 | 0.022 |  |  |  |  |  |  |
| O=C(O)Cc1ccccc1Nc1c(Cl)cccc1Cl [DICLOFENAC] |  |  |  |  | 0.041 |  |  | 15 | 0.61 |  |  |
| O=C1OC2(c3ccc(O)cc3Oc3cc(O)ccc32)c2ccccc21 [FLUORESCEIN] |  | 1.8 |  |  | 0.42 |  |  |  | 0.74 |  |  |
| NCC1(CC(=O)O)CCCCC1 [GABAPENTIN] |  |  |  | 10.5 |  |  |  | 4.6 | 4.55 |  | 3.9 |
| COc1ccc2c(c1)c(CC(=O)O)c(C)n2C(=O)c1ccc(Cl)cc1 [INDOMETHACIN] |  | 14 | 0.6 |  | 0.044 | Active |  |  |  |  |  |
| Nc1nnc(-c2cccc(Cl)c2Cl)c(N)n1 [LAMOTRIGINE] |  | 4.6 | 0.96 |  | 0.21 |  |  |  |  |  |  |
| C[C@H]1COc2c(N3CCN(C)CC3)c(F)cc3c(=O)c(C(=O)O)cn1c23.C[C@H]1COc2c(N3CCN(C)CC3)c(F)cc3c(=O)c(C(=O)O)cn1c23.O [LEVOFLOXACIN] |  |  |  |  | 0.84 |  |  | 1.7 | 1.44 |  |  |
| CN(C)C(=O)C(CCN1CCC(O)(c2ccc(Cl)cc2)CC1)(c1ccccc1)c1ccccc1 [LOPERAMIDE] | Active |  |  | 9 | 0.008 |  |  | 370 | 2.95 |  |  |
| CN(C)C(=N)N=C(N)N [METFORMIN] |  |  |  |  | 0.95 | Active |  | 10 | 9.51 |  |  |
| CN(Cc1cnc2nc(N)nc(N)c2n1)c1ccc(C(=O)N[C@@H](CCC(=O)O)C(=O)O)cc1 [METHOTREXATE] |  | 0.68 | 0.61 |  | 0.89 |  |  |  |  |  |  |
